Results reported in ChEMBL document CHEMBL5247648, “Design, Synthesis, and Anti-Cancer Evaluation of Novel Cyclic Phosphate Prodrug of Gemcitabine” (J Med Chem, 2023).
Calls of active or inactive are those of the source. The rule behind the calls is not given here.

How the values were obtained:
BXPC-3 [1] = assay: Induction of apoptosis in human BXPC-3 cells assessed as late cells at 50 nM incubated for 24 hrs by […] (reference value: 1.24 %); assay type: functional
CWR22R [2] = assay: Antiproliferation activity against human 22Rv1 cells xenografted in castrated male nude Balb/c mouse assessed as downregulation of Ki-67 level at 50 mg/kg, ip administered twice a week measured after 28 days by immunohistochemical assay relative to control; assay type: functional, organism-based; settings: time 28.0 day
MM1.S = assay: Antiproliferative activity against human MM1.S cells assessed as inhibition of cell proliferation treated for 72 hrs by resazurin dye-based fluorescence assay; assay type: functional
BXPC-3 [3] = assay: Cell cycle arrest in human BXPC-3 cells assessed as cell accumulation at S phase at 25 to 100 nM incubated for 24 hrs by flow cytometry; assay type: functional, cell-based; settings: dose 25-100 nM
MIA PaCa-2 = assay: Antiproliferative activity against human MIA PaCa-2 cells assessed as inhibition of cell proliferation treated for 72 hrs by resazurin dye-based fluorescence assay; assay type: functional; settings: MIA PaCa-2, 72 h
[4] = Prodrug conversion in human plasma assessed as metabolites formation incubated for 24 hrs by 31P-NMR analysis; assay type: ADME, cell-free
BXPC-3 [5] = assay: Induction of apoptosis in human BXPC-3 cells assessed as viable cells at 50 nM incubated for 24 hrs by […] (reference value: 93.51 %); assay type: functional; settings: read-out: Activity
BXPC-3 [6] = assay: Induction of apoptosis in human BXPC-3 cells assessed as necrotic cells at 100 nM incubated for 24 hrs by […] (reference value: 3.57 %); assay type: functional
MV4-11 = assay: Antiproliferative activity against human MV4-11 cells assessed as inhibition of cell proliferation treated for 72 hrs by resazurin dye-based fluorescence assay; assay type: functional; settings: MV4-11, 72 h
[7] = Metabolic stability in human plasma assessed as half life incubated for 6 hrs by HPLC analysis; assay type: ADME, cell-free
[8] = Cmax in Beagle dog at 1 mg/kg, iv measured for 0.083 to 24 hrs by LC-MS/MS analysis; assay type: ADME, organism-based, Canis lupus familiaris; design: time upper 24 hrs, time lower 0.083 hrs, dose 1 mg/kg, route iv; settings: in vivo
BXPC-3 [9] = assay: Induction of apoptosis in human BXPC-3 cells assessed as late cells at 25 nM incubated for 24 hrs by […] (reference value: 1.24 %); assay type: functional
BXPC-3 [10] = assay: Induction of apoptosis in human BXPC-3 cells assessed as late cells at 100 nM incubated for 24 hrs by […] (reference value: 1.24 %); assay type: functional
[11] = Toxicity in castrated male nude Balb/c mouse xenografted with human 22Rv1 cells assessed as toxic signs at 50 mg/kg, ip administered twice a week measured after 28 days; assay type: organism-based, CWR22R; settings: in vivo, 672 h, time 28 day
BXPC-3 [12] = assay: Antiproliferative activity against human BXPC-3 cells assessed as inhibition of cell proliferation treated for 72 hrs by resazurin dye-based fluorescence assay; assay type: functional; settings: BXPC-3, 72 h
[13] = Toxicity in nude Balb/c mouse xenografted with human BXPC-3 cells assessed as apparent signs of toxicity at 50 to 80 mg/kg, ip measured after 28 days; assay type: organism-based; settings: in vivo, 672 h, dose 50-80 mg/kg, time 28 day
CWR22R [14] = assay: In vivo antitumor activity against human 22Rv1 cells xenografted in castrated male nude Balb/c mouse assessed as relative increment ratio at 50 mg/kg, ip administered twice a week measured after 28 days relative to control; assay type: functional; settings: time 28 day
BXPC-3 [15] = assay: Induction of apoptosis in human BXPC-3 cells assessed as necrotic cells at 50 nM incubated for 24 hrs by […] (reference value: 3.57 %); assay type: functional
BXPC-3 [16] = assay: Upregulation of cleaved caspase-3 expression in human BXPC-3 cells at 25 to 100 nM incubated for 24 hrs by Western blot analysis; assay type: functional, cell-based; settings: dose 25-100 nM
[17] = Metabolic stability in beagle dog plasma assessed as half life incubated for 6 hrs by HPLC analysis; assay type: ADME, cell-free, Canis lupus familiaris
BXPC-3 [18] = assay: In vivo antitumor activity against human BXPC-3 cells xenografted in nude Balb/c mouse assessed as tumor growth inhibition at 50 to 80 mg/kg, ip measured after 28 days; assay type: functional, organism-based; settings: dose 50-80 mg/kg, time 28.0 day
BXPC-3 [19] = assay: Induction of apoptosis in human BXPC-3 cells assessed as early cells at 25 nM incubated for 24 hrs by […] (reference value: 1.68 %); assay type: functional
BXPC-3 [20] = assay: Induction of apoptosis in human BXPC-3 cells assessed as viable cells at 100 nM incubated for 24 hrs by […] (reference value: 93.51 %); assay type: functional; settings: read-out: Activity
[21] = (§1) Prodrug conversion in human plasma assessed as mixture of benzyl 2-(((((2R,3R,5R)-5-(4-amino-2-oxopyrimidin-1(2H)-yl)-4,4-difluoro-3-hydroxytetrahydrofuran-2-yl)methoxy)(hydroxy)phosphoryl)oxy)acetate and benzyl 2-(((((2R,3R,5R)-5-(4-amino-2-oxopyrimidin-1(2H)-yl)-4,4-difluoro-2-(hydroxymethyl)tetrahydrofuran-3-yl)oxy)(hydroxy)phosphoryl)oxy)acetate metabolites formation incubated for 72 hrs by 31P-NMR analysis; assay type: ADME, cell-free
[22] = Toxicity in castrated male nude Balb/c mouse xenografted with human 22Rv1 cells assessed as animal weight loss at 50 mg/kg, ip administered twice a week measured after 28 days; assay type: organism-based, CWR22R; settings: in vivo, 672 h, time 28 day
[23] = as §1, with “1H-NMR” for “31P-NMR”; assay type: ADME, cell-free
[24] = Toxicity in castrated male nude Balb/c mouse xenografted with human 22Rv1 cells assessed as tolerance at 50 mg/kg, ip administered twice a week measured after 28 days; assay type: organism-based, CWR22R; settings: in vivo, 672 h, time 28 day
BXPC-3 [25] = assay: Induction of apoptosis in human BXPC-3 cells assessed as early cells at 100 nM incubated for 24 hrs by […] (reference value: 1.68 %); assay type: functional
JeKo-1 = assay: Antiproliferative activity against human JeKo-1 cells assessed as inhibition of cell proliferation treated for 72 hrs by resazurin dye-based fluorescence assay; assay type: functional; settings: JeKo-1, 72 h
[26] = as §1, with “LC-MS” for “31P-NMR”; assay type: ADME, cell-free
CWR22R [27] = assay: In vivo antitumor activity against human 22Rv1 cells xenografted in castrated male nude Balb/c mouse assessed as tumor growth inhibition at 50 mg/kg, ip administered twice a week measured after 28 days relative to control; assay type: functional; settings: 22Rv1, 672 h, time 28 day, read-out: TGI
BXPC-3 [28] = assay: Induction of apoptosis in human BXPC-3 cells assessed as early cells at 50 nM incubated for 24 hrs by […] (reference value: 1.68 %); assay type: functional
BXPC-3 [29] = assay: Induction of apoptosis in human BXPC-3 cells assessed as viable cells at 25 nM incubated for 24 hrs by […] (reference value: 93.51 %); assay type: functional; settings: read-out: Activity
[30] = Clearance in Beagle dog at 1 mg/kg, iv measured for 0.083 to 24 hrs by LC-MS/MS analysis; assay type: ADME, organism-based, Canis lupus familiaris; settings: in vivo, time 0.083-24 hrs
BXPC-3 [31] = assay: Induction of apoptosis in human BXPC-3 cells assessed as necrotic cells at 25 nM incubated for 24 hrs by […] (reference value: 3.57 %); assay type: functional
[32] = Half life in Beagle dog at 1 mg/kg, iv measured for 0.083 to 24 hrs by LC-MS/MS analysis; assay type: ADME, organism-based, Canis lupus familiaris; settings: in vivo, time 0.083-24 hrs
[33] = Metabolic stability in rat plasma assessed as half life incubated for 6 hrs by HPLC analysis; assay type: ADME, cell-free
CWR22R [34] = assay: Antiproliferative activity against human 22Rv1 cells assessed as inhibition of cell proliferation treated for 72 hrs by resazurin dye-based fluorescence assay; assay type: functional; settings: 22Rv1, 72 h
[35] = AUC (0 to infinity) in Beagle dog at 1 mg/kg, iv measured for 0.083 to 24 hrs by LC-MS/MS analysis; assay type: ADME, organism-based, Canis lupus familiaris; design: time upper 24 hrs, time lower 0.083 hrs, dose 1 mg/kg, route iv; settings: in vivo
BXPC-3 [36] = assay: Upregulation of P21 WAF1/Cip1 expression in human BXPC-3 cells at 25 to 100 nM incubated for 24 hrs by Western blot analysis; assay type: functional, cell-based; settings: dose 25-100 nM
Huh-7 = assay: Antiproliferative activity against human Huh-7 cells assessed as inhibition of cell proliferation treated for 72 hrs by resazurin dye-based fluorescence assay; assay type: functional; settings: Huh-7, 72 h

IC50 (MM1.S): 3.6 nM
IC50 (MIA PaCa-2): 12.5 nM
Drug metabolism [4]: Metabolite_Detected
IC50 (MV4-11): 5.4 nM
half-life [7]: 40 min
Cmax [8]: 3600 ng/mL
IC50 (BXPC-3 [12]): 16.5 nM
half-life [17]: 40 min
Drug metabolism [21]: Metabolite_Detected
Drug metabolism [23]: Metabolite_Detected
Drug metabolism [26]: Metabolite_Detected
clearance [30]: 32.5 mL/min/kg
half-life [32]: 7.2 min
half-life [33]: 40 min
AUC(0-inf) [35]: 520 ng·h/mL
IC50 (Huh-7): 16.2 nM
SMILES: Nc1ccn([C@@H]2O[C@@H]3COP(=O)(OCC(=O)OCc4ccccc4)O[C@H]3C2(F)F)c(=O)n1 (stereo partly specified)
Activity (BXPC-3 [1]): 2.73%
Activity (CWR22R [2]): Active
Activity (BXPC-3 [3]): Active
viability at 0.05 µM (BXPC-3 [5]): 90.1%
Activity (BXPC-3 [6]): 4.42%
Activity (BXPC-3 [9]): 2.31%
Activity (BXPC-3 [10]): 3.48%
Activity [11]: Non-Toxic
Activity [13]: Non-Toxic
T/C (CWR22R [14]): 35.2%
Activity (BXPC-3 [15]): 4.02%
Activity (BXPC-3 [16]): inactive
Activity (BXPC-3 [18]): Active
Activity (BXPC-3 [19]): 2.87%
viability at 0.1 µM (BXPC-3 [20]): 88.6%
Activity [22]: Non-Toxic
Activity [24]: Non-Toxic
Activity (BXPC-3 [25]): 3.5%
IC50 (JeKo-1): 19.2 nM
inhibition in vivo at 50 mg/kg (CWR22R [27]): 68.5%
Activity (BXPC-3 [28]): 3.19%
viability at 0.025 µM (BXPC-3 [29]): 91.7%
Activity (BXPC-3 [31]): 3.17%
IC50 (CWR22R [34]): 10.6 nM
Activity (BXPC-3 [36]): Active
